Values joined by “and” are separate entries in the source; they are usually repeats but may differ in a detail not shown here. Equal entries are not always repeated.
Tests used:
[1] = system: H.Ep.-2 cells infected with HSV-1; assay: Metabolism in HSV-1-infected H.Ep.-2 cells, SAX HPLC; assay type: cell-based, human; settings: H.Ep.-2 cells infected with HSV-1, 8 hours, Fig. 4
Protocol: The in vivo metabolism of D- and L-2'CdG was also measured in HSV-[TK+]-infected, HSV-[TK-]-infected and mock infected H.Ep.-2 cells (human epidermal carcinoma cells, ATCC CCL23). Uninfected and infected cells were incubated in fresh medium containing 2 µCi/ml of either [^3H]-D- or L-2'CdG, as described above, to measure the metabolism of these enantiomers. After 8 hours the cells were harvested and washed free of medium with PBS, and extracts were prepared with cold 0.5 N perchloric acid for 0.5 hr. The extract was then neutralized with potassium bicarbonate and the resulting precipitate was removed by centrifugation. The supernatant was lyophilized to dryness and the acid-soluble metabolites were separated using SAX HPLC as described above.
While these findings are similar to those obtained with the isolated viral kinase, they differ from the resulted with the isolated enzyme in that relatively more di- and triphosphate were formed from L-2'CdG.

HBV = HBV DNA production and replication in 2.2.15 cell cultures; assay type: cell-based, Hepatitis B virus (HBV); settings: for INTRACELLULAR HBV DNA INTEG. / INTRACELLULAR HBV DNA MONO. / INTRACELLULAR HBV DNA RI: 24 hours following 10th day of treatment; for HBV DNA IN CULTURE MEDIUM DAY 0: day 0 of treatment
Protocol: 2'-CdG was tested at three concentrations (50 ng/ml, 500 ng/ml, and 5 ug/ml) against the HBV-producing, human liver cell line, 2.2.15 (Sells et al., J. Virol. 62:2836, 1989). A racemic (D,L) preparation, as well as the purified D and L isomers were tested. For these analyses compounds were tested in duplicate at all concentrations. Ara-AMP and ddG (2'3'-dideoxyguanosine) were used as HBV inhibitory control compounds. […] The nucleoside analog, ddG was used as an additional control compound since ddG has activity against duck hepatitis B virus in chronically infected Peking ducks (Lee et al., Antimicrob. Agents Chemother. 33:336, 1989) and 2'-CdG is also a deoxyguanosine analog.
2.2.15 cells were seeded in 6 well culture plates and grown to confluence over a 10 day period in medium with 5% FBS. Test compounds were then added daily for a continuous 10 day period in medium with 1% dialyzed FBS. […] Compounds were tested, in duplicate cultures, at 3 concentrations covering a 100-fold range. Culture medium (changed daily during the treatment period) was collected and stored for analysis of extracellular (virion) HBV DNA from days 0, 3, 6, and 10 of the treatment period. This allowed for an analysis of the level of HBV virion production during discrete 24 hour intervals and reduced the potential for the buildup of toxic metabolites derived from the test compounds. Treated cells were lysed following the 10th day of treatment for the analysis of intracellular HBV genomic forms. HBV DNA was analyzed in a quantitative manner for (i) overall levels (both extracellular and intracellular DNA) and (ii) the relative rate of HBV replication (intracellular DNA only).
HBV DNA levels were measured by comparison to known amounts of HBV DNA standards applied to every nitrocellulose filter (gel or slot blot) using an AMBIS Beta Scanner. Standard curves, generated by multiple analyses, were used to correlate CPM measurements with relative levels of target HBV DNA. The levels of HBV DNA in each of three classes of intracellular viral genomic forms were individually quantitated: integrated HBV DNA, episomal monomeric genomes and HBV DNA replication intermediates (RI). Integrated HBV DNA was used to normalize the relative amounts of DNA in each lane because the levels of this class of HBV DNA would be expected to remain constant on a per cell basis. The levels of the monomeric HBV genomes and RI were used as an indicator of the relative level of HBV replication.

In the case of Nc1nc2c(ncn2[C@H]2C[C@@H](CO)[C@H](O)C2)c(=O)[nH]1 [L-2'-CdG, [1S,3R,4S-(1α,3β,4α)]-L-2-Amino-1,9-dihydro-9-[3-hydroxy-4-(hydroxymethyl)cyclopentyl]-6H-purin-6-one], the principal soluble metabolite [1] is reported as “the monophosphate”, the “anti-HBV activity (in words)” value (HBV; 50 ng/ml to 5 ug/ml, 2.2.15 cells) is reported as “did not exhibit any significant anti-HBV activity” and the “INTRACELLULAR HBV DNA INTEG.” value (HBV; 50ng/ml, listed as L, 2-CdG) is reported as 1.3 PG/UG CELL DNA and 0.8 PG/UG CELL DNA. The “INTRACELLULAR HBV DNA MONO.” value (HBV; 50ng/ml, listed as L, 2-CdG) was 1.4 PG/UG CELL DNA and 1.1 PG/UG CELL DNA, the “INTRACELLULAR HBV DNA RI” value (HBV; 50ng/ml, listed as L, 2-CdG) was 90 PG/UG CELL DNA and 76 PG/UG CELL DNA and the “HBV DNA IN CULTURE MEDIUM DAY 0” value (HBV; 50ng/ml, listed as L, 2-CdG) was 48 pg/mL and 67 pg/mL. The “HBV DNA IN CULTURE MEDIUM DAY 3” value (HBV; 50ng/ml, listed as L, 2-CdG) was 47 pg/mL and 83 pg/mL, the “HBV DNA IN CULTURE MEDIUM DAY 6” value (HBV; 50ng/ml, listed as L, 2-CdG) was 90 pg/mL and 63 pg/mL and the “HBV DNA IN CULTURE MEDIUM DAY 10” value (HBV; 50ng/ml, listed as L, 2-CdG) was 90 pg/mL and 61 pg/mL. The “INTRACELLULAR HBV DNA MONO.” value (HBV; 500ng/ml) was 1.9 PG/UG CELL DNA, the “INTRACELLULAR HBV DNA INTEG.” value (HBV; 500ng/ml, listed as L, 2-CdG) was 1.4 PG/UG CELL DNA and 1.5 PG/UG CELL DNA and the “INTRACELLULAR HBV DNA RI” value (HBV; 500ng/ml, listed as L, 2-CdG) was 82 PG/UG CELL DNA and 99 PG/UG CELL DNA. The “HBV DNA IN CULTURE MEDIUM DAY 0” value (HBV; 500ng/ml, listed as L, 2-CdG) was 90 pg/mL and 110 pg/mL, the “HBV DNA IN CULTURE MEDIUM DAY 3” value (HBV; 500ng/ml, listed as L, 2-CdG) was 63 pg/mL and 83 pg/mL and the “HBV DNA IN CULTURE MEDIUM DAY 6” value (HBV; 500ng/ml, listed as L, 2-CdG) was 78 pg/mL and 56 pg/mL. The “HBV DNA IN CULTURE MEDIUM DAY 10” value (HBV; 500ng/ml, listed as L, 2-CdG) was 97 pg/mL and 91 pg/mL, the “INTRACELLULAR HBV DNA INTEG.” value (HBV; 5 ug/ml, listed as L, 2-CdG) was 1.5 PG/UG CELL DNA and 0.9 PG/UG CELL DNA and the “INTRACELLULAR HBV DNA MONO.” value (HBV; 5 ug/ml, listed as L, 2-CdG) was 2.0 PG/UG CELL DNA and 1.1 PG/UG CELL DNA. The “INTRACELLULAR HBV DNA RI” value (HBV; 5 ug/ml, listed as L, 2-CdG) was 97 PG/UG CELL DNA and 86 PG/UG CELL DNA, the “HBV DNA IN CULTURE MEDIUM DAY 0” value (HBV; 5 ug/ml, listed as L, 2-CdG) was 50 pg/mL and 88 pg/mL and the “HBV DNA IN CULTURE MEDIUM DAY 3” value (HBV; 5 ug/ml, listed as L, 2-CdG) was 67 pg/mL and 110 pg/mL. The “HBV DNA IN CULTURE MEDIUM DAY 6” value (HBV; 5 ug/ml, listed as L, 2-CdG) was 77 pg/mL and 120 pg/mL and the “HBV DNA IN CULTURE MEDIUM DAY 10” value (HBV; 5 ug/ml, listed as L, 2-CdG) was 90 pg/mL and 120 pg/mL.

Source: EP0684822B1, “CARBOCYCLIC DEOXYGUANOSINE ANALOGS FOR THE TREATMENT OF VIRAL INFECTIONS” (SOUTHERN RESEARCH INSTITUTE, priority 1993, dated 1994)
